Measured values published in PubChem BioAssay AID1919001 (Molecular Pharmacology Branch, DTP, NCI, 2023).
Values joined by “and” are separate entries in the source; they are usually repeats but may differ in a detail not shown here. Equal values may be shown once.

Test system: 699152-130-R-J1-PDC complex spheroid growth
Assay: Anticancer human tumor 699152-130-R-J1-PDC patient-derived pancreatic carcinoma cell line growth inhibition [AhR]
Conditions: for viability, T/C: stronger effect = lower value
Outline: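 Spheroids combined tumor cells with HUVEC endothelial cells and human MSCs as stroma. AhR antagonists were paired with standard or investigational drugs, each dosed in half-log steps down from near clinical Cmax, or from 10 microM where Cmax was unknown.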

[1] = curve of first compound, second compound 0.1 µM
[2] = curve of first compound, second compound 0.316 µM
[3] = curve of first compound, second compound 1 µM
[4] = curve of first compound, second compound 3.16 µM
[5] = curve of first compound, second compound 10 µM
[6] = second compound 0.1 µM, first compound 0.0316 µM
[7] = second compound 0.1 µM, first compound 0.1 µM
[8] = second compound 0.1 µM, first compound 0.316 µM
[9] = second compound 0.1 µM, first compound 1 µM
[10] = second compound 0.1 µM, first compound 3.16 µM
[11] = second compound 0.1 µM, first compound 10 µM
[12] = second compound 0.316 µM, first compound 0.0316 µM
[13] = second compound 0.316 µM, first compound 0.1 µM
[14] = second compound 0.316 µM, first compound 0.316 µM
[15] = second compound 0.316 µM, first compound 1 µM
[16] = second compound 0.316 µM, first compound 3.16 µM
[17] = second compound 0.316 µM, first compound 10 µM
[18] = second compound 1 µM, first compound 0.0316 µM
[19] = second compound 1 µM, first compound 0.1 µM
[20] = second compound 1 µM, first compound 0.316 µM
[21] = second compound 1 µM, first compound 1 µM
[22] = second compound 1 µM, first compound 3.16 µM
[23] = second compound 1 µM, first compound 10 µM
[24] = second compound 3.16 µM, first compound 0.0316 µM
[25] = second compound 3.16 µM, first compound 0.1 µM
[26] = second compound 3.16 µM, first compound 0.316 µM
[27] = second compound 3.16 µM, first compound 1 µM
[28] = second compound 3.16 µM, first compound 3.16 µM
[29] = second compound 3.16 µM, first compound 10 µM
[30] = second compound 10 µM, first compound 0.0316 µM
[31] = second compound 10 µM, first compound 0.1 µM
[32] = second compound 10 µM, first compound 0.316 µM
[33] = second compound 10 µM, first compound 1 µM
[34] = second compound 10 µM, first compound 3.16 µM
[35] = second compound 10 µM, first compound 10 µM
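Also: compound exposure lasted 7 days after spheroids had grown for 3 days.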

IC50 [1]	IC50 [2]	IC50 [3]	IC50 [4]	IC50 [5]	Compound	viability, T/C [6]	viability, T/C [7]	viability, T/C [8]	viability, T/C [9]	viability, T/C [10]	viability, T/C [11]	viability, T/C [12]	viability, T/C [13]	viability, T/C [14]	viability, T/C [15]	viability, T/C [16]	viability, T/C [17]	viability, T/C [18]	viability, T/C [19]	viability, T/C [20]	other results
349 nM	342 nM	356 nM	117 nM	< 31.6 nM	COc1cccc2c1C(=O)c1c(O)c3c(c(O)c1C2=O)CC(O)(C(=O)CO)CC3OC1CC(N)C(O)C(C)O1 (centres undefined) + Cc1cncc(-c2nc(NCCc3c[nH]c4ccccc34)c3ncn(C(C)C)c3n2)c1	67.3%	64.1%	51.4%	25.4%	2.77%	7.37%	62.9%	58.7%	51.6%	22.9%	2.99%	7.49%	70.8%	71.5%	52.5%	viability, T/C [21]: 20.9%; viability, T/C [22]: 3.69%; viability, T/C [23]: 6.86%; viability, T/C [24]: 51.5%; viability, T/C [25]: 53.3%; viability, T/C [26]: 34.7%; viability, T/C [27]: 5.89%; viability, T/C [28]: 4.86%; viability, T/C [29]: 7.43%; viability, T/C [30]: 14.6%; viability, T/C [31]: 16.3%; viability, T/C [32]: 14.2%; viability, T/C [33]: 1.29%; viability, T/C [34]: 5.06%; viability, T/C [35]: 5.36%
> 10000 nM	> 10000 nM	> 10000 nM	> 10000 nM	> 10000 nM	CC(C)c1c(-c2ccccc2)nc2c(C#N)c[nH]n2c1=O + Cc1ccccc1N=Nc1ccc(NC(=O)c2ccnn2C)c(C)c1	104%	81.7%	89.5%	86.4%	79.6%	92.1%	94.6%	86.2%	82.6%	82.5%	84.6%	84.6%	83.3%	93%	87.7%	viability, T/C [21]: 99.1%; viability, T/C [22]: 86.7%; viability, T/C [23]: 90.8%; viability, T/C [24]: 96%; viability, T/C [25]: 102%; viability, T/C [26]: 103%; viability, T/C [27]: 82.5%; viability, T/C [28]: 98.8%; viability, T/C [29]: 93.5%; viability, T/C [30]: 99.7%; viability, T/C [31]: 96.6%; viability, T/C [32]: 103%; viability, T/C [33]: 102%; viability, T/C [34]: 106%; viability, T/C [35]: 103%
					CC1COCCN1c1cc(-c2ccnn2C)c2ccnc(-c3ccn[nH]3)c2n1 (centres undefined)																viability, T/C (compound 0.00316 µM): 106% and 92.5% and 103%; viability, T/C (compound 0.01 µM): 106% and 96.9% and 109%; viability, T/C (compound 0.0316 µM): 95.6% and 95.9% and 92.5%; viability, T/C (compound 0.1 µM): 85.9% and 90.6% and 95.9%; viability, T/C (compound 0.316 µM): 72.5% and 84.8% and 77.6%; viability, T/C (compound 1 µM): 59.9% and 58.5% and 61.5%; IC50 (curve of compound): > 1000 nM
156 nM	470 nM	390 nM	458 nM	1740 nM	Nc1ccn(C2OC(CO)C(O)C2(F)F)c(=O)n1 (centres undefined) + Cc1ccccc1N=Nc1ccc(NC(=O)c2ccnn2C)c(C)c1	52.3%	55.2%	43.9%	45.8%	39.6%	33.9%	57.9%	58.4%	52.1%	46.8%	40.1%	41.6%	68.2%	58.7%	50.2%	viability, T/C [21]: 46.4%; viability, T/C [22]: 44.2%; viability, T/C [23]: 43.1%; viability, T/C [24]: 58.6%; viability, T/C [25]: 57.1%; viability, T/C [26]: 48.4%; viability, T/C [27]: 48.3%; viability, T/C [28]: 44.5%; viability, T/C [29]: 39.5%; viability, T/C [30]: 74.9%; viability, T/C [31]: 61.9%; viability, T/C [32]: 56.2%; viability, T/C [33]: 51.8%; viability, T/C [34]: 48.5%; viability, T/C [35]: 47.2%
					CC(C)c1c(-c2ccccc2)nc2c(C#N)c[nH]n2c1=O																viability, T/C (compound 0.0316 µM): 108% and 92.1% and 105%; viability, T/C (compound 0.1 µM): 102% (2×) and 87.1%; viability, T/C (compound 0.316 µM): 109% and 90% and 107%; viability, T/C (compound 1 µM): 97.5% and 90.3% and 96%; viability, T/C (compound 3.16 µM): 112% and 104% and 99.7%; viability, T/C (compound 10 µM): 107% and 88.4% and 99.3%; IC50 (curve of compound): > 10000 nM
